# Patent US7211588B2, “N-substituted indolyl-3-glyoxylamides, their use as medicaments and process for their preparation” (Zentaris GmbH, priority 2003, dated 2007)
# How the values were obtained:
# [1] = test system: human glioblastoma cell line SF-268 (NCl 503138); experiment: XTT proliferation/cytotoxicity test, SF-268; format: cell-based; details: SF-268 cells
# From the text: (§1) Substance 1 was investigated for its antiproliferative action in a proliferation test using established tumor cell (D. A. Scuderio et al. Cancer Res. 1988, 48, 4827–4833). The test used determines the cellular dehydrogenase activity and permits a determination of the cell vitality and, indirectly, of the cell count. The cell lines used are the human cervical carcinoma cell line KB/HeLa (ATCC CCL17), the ovarial adeno carcinoma cell line SKOV-3 (ATCC HTB77), the human glioblastoma cell line SF-268 (NCl 503138) and the pulmonary carcinoma cell line NCl-H460 (NCl 503473).
# [2] = test system: ovarial adeno carcinoma cell line SKOV-3 (ATCC HTB77); experiment: XTT proliferation/cytotoxicity test, SK-OV-3; format: cell-based; details: Homo sapiens, SK-OV-3 cells
# From the text: as §1
# [3] = test system: human cervical carcinoma cell line KB/HeLa (ATCC CCL17); experiment: XTT proliferation/cytotoxicity test, KB/HeLa; format: cell-based; details: KB/HeLa cells
# From the text: as §1
# [4] = test system: pulmonary carcinoma cell line NCl-H460 (NCl 503473); experiment: XTT proliferation/cytotoxicity test, NCI-H460; format: cell-based; details: Homo sapiens, NCI-H460 cells
# From the text: as §1
# [5] = test system: acute myeloid leukemia cell line LT12; experiment: XTT proliferation test, LT12; format: cell-based; details: Rattus norvegicus, LT12 wild-type cells
# From the text: as §1, with “503473). Substance 1 was further characterized by testing with regard to multidrug-resistant cell lines as compared with the nonresistant wild-type cell lines. The cell lines tested are the murine cell line L1210, the acute myeloid leukemia cell line LT12 and the resistant lines L1210/mdr and LT12/mdr. Further test systems used are the murine P388 cell line (methylcholanthrene-induced lymphoid neoplasm) and the doxorubicin-resistant P388 cell line.” for “503473).”
# [6] = test system: doxorubicin-resistant P388 cell line; experiment: XTT proliferation test, P388ADR; format: cell-based, murine; details: Mus musculus, doxorubicin-resistant P388ADR cells
# From the text: as §1, with “503473). Substance 1 was further characterized by testing with regard to multidrug-resistant cell lines as compared with the nonresistant wild-type cell lines. The cell lines tested are the murine cell line L1210, the acute myeloid leukemia cell line LT12 and the resistant lines L1210/mdr and LT12/mdr. Further test systems used are the murine P388 cell line (methylcholanthrene-induced lymphoid neoplasm) and the doxorubicin-resistant P388 cell line.” for “503473).”
# [7] = test system: murine P388 cell line (methylcholanthrene-induced lymphoid neoplasm); experiment: XTT proliferation test, P388; format: cell-based; details: Mus musculus, P388 wild-type cells
# From the text: as §1, with “503473). Substance 1 was further characterized by testing with regard to multidrug-resistant cell lines as compared with the nonresistant wild-type cell lines. The cell lines tested are the murine cell line L1210, the acute myeloid leukemia cell line LT12 and the resistant lines L1210/mdr and LT12/mdr. Further test systems used are the murine P388 cell line (methylcholanthrene-induced lymphoid neoplasm) and the doxorubicin-resistant P388 cell line.” for “503473).”
# resistant line LT12/mdr = experiment: XTT proliferation test, LT12mdr; format: cell-based; details: Rattus norvegicus, multidrug-resistant LT12mdr cells
# From the text: as §1, with “503473). Substance 1 was further characterized by testing with regard to multidrug-resistant cell lines as compared with the nonresistant wild-type cell lines. The cell lines tested are the murine cell line L1210, the acute myeloid leukemia cell line LT12 and the resistant lines L1210/mdr and LT12/mdr. Further test systems used are the murine P388 cell line (methylcholanthrene-induced lymphoid neoplasm) and the doxorubicin-resistant P388 cell line.” for “503473).”
# [8] = test system: resistant line L1210/mdr (L1210VCR); experiment: XTT proliferation test, L1210VCR; format: cell-based, murine; details: Mus musculus, resistant L1210VCR cells
# From the text: as §1, with “503473). Substance 1 was further characterized by testing with regard to multidrug-resistant cell lines as compared with the nonresistant wild-type cell lines. The cell lines tested are the murine cell line L1210, the acute myeloid leukemia cell line LT12 and the resistant lines L1210/mdr and LT12/mdr. Further test systems used are the murine P388 cell line (methylcholanthrene-induced lymphoid neoplasm) and the doxorubicin-resistant P388 cell line.” for “503473).”
# murine cell line L1210 = experiment: XTT proliferation test, L1210; format: cell-based; details: Mus musculus, L1210 wild-type cells
# From the text: as §1, with “503473). Substance 1 was further characterized by testing with regard to multidrug-resistant cell lines as compared with the nonresistant wild-type cell lines. The cell lines tested are the murine cell line L1210, the acute myeloid leukemia cell line LT12 and the resistant lines L1210/mdr and LT12/mdr. Further test systems used are the murine P388 cell line (methylcholanthrene-induced lymphoid neoplasm) and the doxorubicin-resistant P388 cell line.” for “503473).”
compound,measurement,setting,value
"O=C(C(=O)N(C(=O)c1ccccc1)c1ccc2ncccc2c1)c1cn(Cc2ccc(Cl)cc2)c2ccccc12 [Compound 1, N-{2-[1-(4-Chlorobenzyl)-1H-indol-3-yl]-2-oxoacetyl}-N-quinolin-6-ylbenzamide]",IC50,[1],0.261 µg/mL
same,IC50,[2],0.139 µg/mL
same,IC50,[3],0.17 µg/mL
same,IC50,[4],0.222 µg/mL
same,IC50,[5],0.226 µg/mL
same,IC50,[6],0.252 µg/mL
same,IC50,[7],0.219 µg/mL
same,IC50,resistant line LT12/mdr,0.277 µg/mL
same,IC50,[8],0.577 µg/mL
same,melting point,,213 °C
same,IC50,murine cell line L1210,0.255 µg/mL
